Test system: 885724-159-R-J1-PDC KRAS PDC multicell spheroid viability
Test: Anticancer human tumor 885724-159-R-J1-PDC patient-derived pancreatic adenocarcinoma cell line growth inhibition [KRAS2]
Conditions: for IC50: curve of first compound; for viability, T/C: stronger effect = lower value
Method in brief: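 KRAS-mutant tumor cells were grown as spheroids with HUVEC endothelial cells and human MSCs as stroma. Targeted agents were tested alone and with KRAS pathway inhibitors. Doses started at or near clinical Cmax, or 10 microM, descending half-log.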

[1] = second compound 0.0316 µM, first compound 0.0316 µM
[2] = second compound 0.0316 µM, first compound 0.1 µM
[3] = second compound 0.0316 µM, first compound 0.316 µM
[4] = second compound 0.0316 µM, first compound 1 µM
[5] = second compound 0.0316 µM, first compound 3.16 µM
[6] = second compound 0.0316 µM, first compound 10 µM
[7] = second compound 0.1 µM, first compound 0.0316 µM
[8] = second compound 0.1 µM, first compound 0.1 µM
[9] = second compound 0.1 µM, first compound 0.316 µM
[10] = second compound 0.1 µM, first compound 1 µM
[11] = second compound 0.1 µM, first compound 3.16 µM
[12] = second compound 0.1 µM, first compound 10 µM
[13] = second compound 0.316 µM, first compound 0.0316 µM
[14] = second compound 0.316 µM, first compound 0.1 µM
[15] = second compound 0.316 µM, first compound 0.316 µM
[16] = second compound 0.316 µM, first compound 1 µM
[17] = second compound 0.316 µM, first compound 3.16 µM
[18] = second compound 0.316 µM, first compound 10 µM
[19] = second compound 1 µM, first compound 0.0316 µM
[20] = second compound 1 µM, first compound 0.1 µM
[21] = second compound 1 µM, first compound 0.316 µM
[22] = second compound 1 µM, first compound 1 µM
[23] = second compound 1 µM, first compound 3.16 µM
[24] = second compound 1 µM, first compound 10 µM
[25] = second compound 3.16 µM, first compound 0.0316 µM
[26] = second compound 3.16 µM, first compound 0.1 µM
[27] = second compound 3.16 µM, first compound 0.316 µM
[28] = second compound 3.16 µM, first compound 1 µM
[29] = second compound 3.16 µM, first compound 3.16 µM
[30] = second compound 3.16 µM, first compound 10 µM
[31] = second compound 0.0316 µM, first compound 0.00316 µM
[32] = second compound 0.0316 µM, first compound 0.01 µM
[33] = second compound 0.1 µM, first compound 0.00316 µM
[34] = second compound 0.1 µM, first compound 0.01 µM
[35] = second compound 0.316 µM, first compound 0.00316 µM
[36] = second compound 0.316 µM, first compound 0.01 µM
[37] = second compound 1 µM, first compound 0.00316 µM
[38] = second compound 1 µM, first compound 0.01 µM
[39] = second compound 3.16 µM, first compound 0.00316 µM
[40] = second compound 3.16 µM, first compound 0.01 µM
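Also: spheroids exposed to agents for 7 days before readout.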

SMILES | IC50 (second compound 0.0316 µM) | IC50 (second compound 0.1 µM) | IC50 (second compound 0.316 µM) | IC50 (second compound 1 µM) | IC50 (second compound 3.16 µM) | viability, T/C [1] | viability, T/C [2] | viability, T/C [3] | viability, T/C [4] | viability, T/C [7] | viability, T/C [8] | viability, T/C [9] | viability, T/C [10] | viability, T/C [13] | viability, T/C [14] | viability, T/C [15] | viability, T/C [19] | viability, T/C [20] | viability, T/C [25] | viability, T/C [26] | further results
CC(C)NCC(C(=O)N1CCN(c2ncnc3c2C(C)CC3O)CC1)c1ccc(Cl)cc1 (stereo not given) + C=CC(=O)N1CCN(c2nc(OCC3CCCN3C)nc3c2CCN(c2cccc4cccc(C)c24)C3)CC1CC#N | > 10000 nM | > 10000 nM | > 10000 nM | > 10000 nM | 43.6 nM | 84.5% | 83.1% | 81.1% | 75.4% | 90.8% | 79.2% | 69.9% | 65.9% | 89.3% | 74.3% | 67.9% | 83.5% | 72.5% | 55.9% | 37% | viability, T/C [5]: 75.6%; viability, T/C [6]: 62.5%; viability, T/C [11]: 79%; viability, T/C [12]: 56.9%; viability, T/C [16]: 68.9%; viability, T/C [17]: 69.8%; viability, T/C [18]: 57.2%; viability, T/C [21]: 61.5%; viability, T/C [22]: 58.7%; viability, T/C [23]: 61.4%; viability, T/C [24]: 48.3%; viability, T/C [27]: 33.8%; viability, T/C [28]: 26.8%; viability, T/C [29]: 16.4%; viability, T/C [30]: 6.38%
CCN1CCN(Cc2ccc(Nc3ncc(F)c(-c4cc(F)c5nc(C)n(C(C)C)c5c4)n3)nc2)CC1 + C=CC(=O)N1CCN(c2nc(OCC3CCCN3C)nc3c2CCN(c2cccc4cccc(C)c24)C3)CC1CC#N | > 1000 nM | > 1000 nM | > 1000 nM | > 1000 nM | 10 nM | 91.2% | 89.1% | 89.3% | 89.6% | 75.9% | 74.5% | 77.7% | 91.2% | 78% | 78.4% | 76.6% | 78.1% | 68.5% | 46% | 41.3% | viability, T/C [31]: 105%; viability, T/C [32]: 102%; viability, T/C [33]: 93.1%; viability, T/C [34]: 93.6%; viability, T/C [35]: 101%; viability, T/C [36]: 88.1%; viability, T/C [16]: 82.5%; viability, T/C [37]: 75.7%; viability, T/C [38]: 86.1%; viability, T/C [21]: 72.4%; viability, T/C [22]: 82.3%; viability, T/C [39]: 53.1%; viability, T/C [40]: 54.1%; viability, T/C [27]: 49.4%; viability, T/C [28]: 47.6%
CCNC(=O)CC1N=C(c2ccc(Cl)cc2)c2cc(OC)ccc2-n2c(C)nnc21 (stereo not given) + C=CC(=O)N1CCN(c2nc(OCC3CCCN3C)nc3c2CCN(c2cccc4cccc(C)c24)C3)CC1CC#N | 3550 nM | 1180 nM | 835 nM | 855 nM | < 31.6 nM | 110% | 98.9% | 74.7% | 63.9% | 102% | 89.1% | 64.8% | 51% | 118% | 105% | 63.5% | 87.2% | 82.7% | 49% | 49.4% | viability, T/C [5]: 49.9%; viability, T/C [6]: 44.8%; viability, T/C [11]: 46.3%; viability, T/C [12]: 45.7%; viability, T/C [16]: 50.4%; viability, T/C [17]: 45%; viability, T/C [18]: 42.4%; viability, T/C [21]: 66.5%; viability, T/C [22]: 46.5%; viability, T/C [23]: 45%; viability, T/C [24]: 39.5%; viability, T/C [27]: 39.2%; viability, T/C [28]: 20.6%; viability, T/C [29]: 29.3%; viability, T/C [30]: 27.9%
Cn1ncnc1[C@H]1c2n[nH]c(=O)c3cc(F)cc(c23)N[C@@H]1c1ccc(F)cc1 + C=CC(=O)N1CCN(c2nc(OCC3CCCN3C)nc3c2CCN(c2cccc4cccc(C)c24)C3)CC1CC#N | > 100 nM | > 100 nM | > 100 nM | > 100 nM | > 100 nM | 97.8% | 96.1% | – | – | 106% | 89.5% | – | – | 112% | 88.6% | – | 102% | 99.4% | 59.5% | 59.7% | viability, T/C (second compound 0.0316 µM, first compound 0.000316 µM): 115%; viability, T/C (second compound 0.0316 µM, first compound 0.001 µM): 117%; viability, T/C [31]: 108%; viability, T/C [32]: 103%; viability, T/C (second compound 0.1 µM, first compound 0.000316 µM): 106%; viability, T/C (second compound 0.1 µM, first compound 0.001 µM): 108%; viability, T/C [33]: 98.7%; viability, T/C [34]: 108%; viability, T/C (second compound 0.316 µM, first compound 0.000316 µM): 110%; viability, T/C (second compound 0.316 µM, first compound 0.001 µM): 111%; viability, T/C [35]: 106%; viability, T/C [36]: 102%; viability, T/C (second compound 1 µM, first compound 0.000316 µM): 100%; viability, T/C (second compound 1 µM, first compound 0.001 µM): 114%; viability, T/C [37]: 108%; viability, T/C [38]: 101%; viability, T/C (second compound 3.16 µM, first compound 0.000316 µM): 69.6%; viability, T/C (second compound 3.16 µM, first compound 0.001 µM): 61.4%; viability, T/C [39]: 63.3%; viability, T/C [40]: 67.7%

Source: PubChem BioAssay AID1963861 (Molecular Pharmacology Branch, DTP, NCI, 2024)
